How the values were obtained:
[1] = test system: Jurkat T cells (PMA and ionomycin-induced gene expression); assay: mRNA sequencing of activated Jurkat T cells; format: cell-based, human; settings: P+I 8 h
Protocol: We then extracted RNA from these cells. Construction of the cDNA library and next-generation sequencing was performed at LAS (Gimpo, Korea). We sequenced all samples on an Illumina NextSeq 500 system with 75 paired-end reads. For the RNA sequencing analysis, reads for each sample were aligned to the human genome (GRCh37/hg19 genome assembly) using STAR 2.4.0.1[25] with default settings. We used HOMER tools to quantify and normalize the defined genes in RefSeq transcripts. FPKM normalized genes were hierarchically clustered using Cluster3.0[26]. We visualized refined data with Java Treeview (http://jtreeview.sourceforge.net). We conducted gene ontology analysis of each cluster using the DAVID web tool (https://david.ncifcrf.gov). Finally, we visualized the expression levels of target genes using the Integrative Genomics Viewer (http://software.broadinstitute.org/software/igv). The raw data were submitted to the NCBI Gene Expression Omnibus under accession number GSE185561.
Fig. 3 The CABIN1 peptide inhibits T-cell activation. a Heatmap of altered genes affected by FK506 treatment or CABIN1 peptide expression upon T-cell activation. b Gene Ontology analysis of cluster III. c mRNA expression levels of genes included in cluster III. d qRT-PCR data of genes in c. The experiment was independently repeated at least three times, and the data are presented as the mean ± standard deviation. Statistical differences were determined using two-tailed Student’s t-test. *p < 0.05, **p < 0.01, ***p < 0.001, NC negative control.

[2] = test system: Jurkat T cells (T-cell activation gene mRNA); assay: Real-time quantitative PCR of activated Jurkat T cells; format: cell-based; settings: PMA and ionomycin, Supplementary Fig. 5a, b
Text: We collected Jurkat T cells with QIAzol Lysis Reagent (Qiagen) to extract total RNA. We reverse transcribed cDNAs from isolated RNA using AMV Reverse Transcriptase and random hexamers. We performed real-time quantitative PCR for each cDNA using TB Green® Premix Ex Taq™ (TaKaRa, Kusatsu, Japan) on a CFX Connect Real-time PCR Detection System (Bio-Rad, Hercules, CA, USA) and normalized the expression to that of 18 S rRNA or GAPDH.

C=CC[C@@H]1/C=C(\C)C[C@H](C)C[C@H](OC)[C@H]2O[C@@](O)(C(=O)C(=O)N3CCCC[C@H]3C(=O)O[C@H](/C(C)=C/[C@@H]3CC[C@@H](O)[C@H](OC)C3)[C@H](C)[C@@H](O)CC1=O)[C@H](C)C[C@@H]2OC [FK506, reference compound]
LOC729603 expression ([1]; NC 1.468, NC_P+I 5.071): 2.179 FPKM | PDGFA expression ([1]; NC 1.497, NC_P+I 26.809): 3.25 FPKM | PHACTR2 expression ([1]; NC 1.659, NC_P+I 9.467): 2.927 FPKM | CABP1 expression ([1]; NC 1.702, NC_P+I 5.834): 1.201 FPKM | POU2AF1 expression ([1]; NC 1.84, NC_P+I 36.298): 2.274 FPKM | SPRY1 expression ([1]; NC 2.079, NC_P+I 12.391): 4.074 FPKM | GFOD1 expression ([1]; NC 2.283, NC_P+I 12.861): 4.187 FPKM | DSTYK expression ([1]; NC 2.356, NC_P+I 7.198): 3.501 FPKM | FMNL2 expression ([1]; NC 2.395, NC_P+I 6.813): 2.726 FPKM | ADORA2A expression ([1]; NC 2.492, NC_P+I 11.633): 0.998 FPKM | CD27 expression ([1]; NC 2.525, NC_P+I 27.462): 3.098 FPKM | TNFRSF4 expression ([1]; NC 2.597, NC_P+I 31.683): 2.933 FPKM | REL expression ([1]; NC 2.654, NC_P+I 20.219): 4.749 FPKM | JAK2 expression ([1]; NC 2.788, NC_P+I 26.566): 5.248 FPKM | LRRC8B expression ([1]; NC 2.89, NC_P+I 28.699): 3.555 FPKM | NPDC1 expression ([1]; NC 3.008, NC_P+I 8.759): 4.328 FPKM | CD27-AS1 expression ([1]; NC 3.088, NC_P+I 14.958): 5.11 FPKM | CST7 expression ([1]; NC 3.315, NC_P+I 14.15): 2.338 FPKM | TAGAP expression ([1]; NC 3.351, NC_P+I 128.498): 4.352 FPKM | CD55 expression ([1]; NC 3.587, NC_P+I 39.451): 6.015 FPKM | GTDC1 expression ([1]; NC 3.595, NC_P+I 10.378): 4.629 FPKM | KCNK5 expression ([1]; NC 3.84, NC_P+I 14.865): 3.906 FPKM | MYO1D expression ([1]; NC 4.114, NC_P+I 11.118): 4.59 FPKM | RDH10 expression ([1]; NC 4.125, NC_P+I 19.889): 5.856 FPKM | COL27A1 expression ([1]; NC 4.149, NC_P+I 17.216): 4.463 FPKM | PLK3 expression ([1]; NC 4.432, NC_P+I 14.807): 5.257 FPKM | NFATC1 expression ([1]; NC 4.511, NC_P+I 15.287): 3.793 FPKM | ASAP1 expression ([1]; NC 4.678, NC_P+I 18.37): 7.765 FPKM | GRK5 expression ([1]; NC 5.451, NC_P+I 21.464): 8.481 FPKM | CCDC64 expression ([1]; NC 5.477, NC_P+I 33.545): 10.044 FPKM | ATG14 expression ([1]; NC 5.727, NC_P+I 30.239): 7.863 FPKM | PELI1 expression ([1]; NC 5.755, NC_P+I 16.085): 8.175 FPKM | ARHGEF3 expression ([1]; NC 6.146, NC_P+I 31.337): 8.637 FPKM | PKIA expression ([1]; NC 6.444, NC_P+I 49.019): 13.962 FPKM | LTBP4 expression ([1]; NC 7.304, NC_P+I 33.466): 8.427 FPKM | LAMP3 expression ([1]; NC 8.064, NC_P+I 31.61): 6.412 FPKM | LAX1 expression ([1]; NC 8.344, NC_P+I 24): 8.052 FPKM | PTPN22 expression ([1]; NC 8.928, NC_P+I 45.38): 6.37 FPKM | VAMP1 expression ([1]; NC 9.566, NC_P+I 50.97): 14.793 FPKM | NINJ1 expression ([1]; NC 10.319, NC_P+I 76.622): 11.769 FPKM | KCNK1 expression ([1]; NC 10.828, NC_P+I 36.893): 10.967 FPKM | CD97 expression ([1]; NC 10.97, NC_P+I 49.481): 19.394 FPKM | FBXO34 expression ([1]; NC 11.735, NC_P+I 48.015): 14.612 FPKM | TBC1D20 expression ([1]; NC 11.844, NC_P+I 35.808): 17.7 FPKM | MIR6775 expression ([1]; NC 12.409, NC_P+I 50.527): 19.643 FPKM | AGK expression ([1]; NC 14.395, NC_P+I 39.056): 14.029 FPKM | FYN expression ([1]; NC 14.671, NC_P+I 58.084): 16.523 FPKM | MIR6821 expression ([1]; NC 17.553, NC_P+I 62.894): 13.626 FPKM | NDFIP1 expression ([1]; NC 19.638, NC_P+I 54.615): 22.485 FPKM | TBC1D4 expression ([1]; NC 20.739, NC_P+I 73.749): 12.549 FPKM | MAP2K3 expression ([1]; NC 21.676, NC_P+I 144.057): 41.815 FPKM | PTPN6 expression ([1]; NC 22.163, NC_P+I 77.092): 20.906 FPKM | FXYD5 expression ([1]; NC 25.643, NC_P+I 101.352): 41.346 FPKM | BCL2L1 expression ([1]; NC 31.375, NC_P+I 113.956): 39.402 FPKM | ATP6V1B2 expression ([1]; NC 33.172, NC_P+I 129.395): 50.672 FPKM | PIM3 expression ([1]; NC 37.434, NC_P+I 180.382): 42.827 FPKM | PPIF expression ([1]; NC 58.328, NC_P+I 188.301): 50.291 FPKM | NINJ1 and ZP4 expression upon T-cell activation [2]: repressed

Reference: article PMC9166766 (Experimental & Molecular Medicine, 2022)
